The record followed here is paper PMC10609273, “Radiosynthesis and Early Evaluation of a Positron Emission Tomography Imaging Probe [^18F]AGAL Targeting Alpha-Galactosidase A Enzyme for Fabry Disease” (Molecules, 2023).

The structures appear in SMILES notation.

Data set [1] deals with 167 protein targets (human and rodent recombinant receptors and binding sites). As to the kind of experiment: Eurofins SpectrumScreen selectivity panel. How it is done:
The AGAL molecule had ≥50% inhibition of specific binding or activity with IC50 values > 10 µM for a range of human and rodent recombinant receptors and binding sites (e.g., calcium and potassium channels and various subtypes of adrenergic, bombesin, calcitonin, serotonin, acetylcholine, histamine, and glutamate receptors or transporters).
The AGAL molecule was tested for estimated inhibition potency (IC50) and/or inhibition constants (Ki) on 167 protein targets (Eurofins SpectrumScreen).

The nature of data set [2]: LogD determination, miniaturized shake flask method. The format is physicochemical. The following applies: octanol/buffer (1:1); octanol/buffer pH 7.4 (1:1), 66.6 μM. How it is done: The distribution of AGAL between an organic solvent (octanol) and aqueous buffer (pH 7.4) was tested using the miniaturized shake flask method in octanol/buffer (1:1). This was accomplished by spiking the test compound (prepared in DMSO) into pre-equilibrated octanol/buffer phases at a concentration of 66.6 μM followed by shaking at 880 rpm for 1 h. The concentration of the test compound in both phases was analyzed using LC–MS/MS.

Data set [3] in a line: Plasma stability study, human. The format is in vitro ADME. How it is done: Briefly, plasma stability was assessed by incubating compounds in the presence of human (pooled) and mouse (pooled) plasma (Bioreclamation, Westbury, NY, USA). All chemicals and reagents including control compounds were purchased from commercial sources such as Sigma-Aldrich or Toronto Research Chemicals. Plasma incubations were conducted by placing plasma (95 μL) in a 96-well microtiter plate and warming to 37 °C for 5 min. The reaction was initiated with the addition of the test article (5 μL of 20 μM), totaling 100 μL in incubation volume. At 0, 15, 30, 60, and 120 min time points, the reactions were terminated with the addition of acetonitrile-containing carbutamide (as an internal standard). The terminated samples were then centrifuged at 2 °C to pellet the protein, and the supernatant was injected onto an LC–MS. The test article was monitored for loss over time and the t1/2 was determined.

Data set [4] in a line: In vitro liver microsomal metabolism study, mouse. It counts as in vitro ADME. The following applies: mouse liver microsomes. How it is done:
Metabolic stability was assessed by incubating compounds in the presence of human, rat, and mouse liver microsomal fractions (Xenotech, Kansas City, KS, USA). All chemicals and reagents, including control compounds, were purchased from commercial sources such as Sigma-Aldrich (St. Louis, MO, USA) or Toronto Research Chemicals (North York, ON, Canada). Liver microsomal incubations were conducted with 100 mM phosphate buffer, 0.5 mg/mL of liver microsomal protein, 2 mM NADPH, 2.5 mM UDPGA, 3 mM MgCl2, alamethicin, and 1 μM test article for a total incubation volume of 80 µL. All reagents except the liver microsomes were mixed together and aliquoted (60 μL) into 96-well plates. The reaction was initiated by adding the microsomes (20 μL). At 0, 3, 7, 12, 20, and 30 min time points, the reactions were terminated with the addition of acetonitrile-containing carbutamide (as an internal standard). The terminated samples were then centrifuged at 2 °C to pellet the protein and the supernatant was injected onto an LC–MS. The test article was monitored for loss over time and the t1/2 was determined. The calculated t1/2 was then used as described below to determine the Eh (hepatic extraction ratio) for both human and rat.
The intrinsic clearance (CLint), hepatic clearance (CLh), and hepatic extraction ratio (Eh) were calculated using the equations below. CLint = (0.693/t1/2 in vitro) × (mL incubation volume/mg microsomal protein) × (X mg of microsomal protein/gram of liver) × (Y g of liver/kg of body weight)(1) CLh = Q × CLint/Q + CLint(2) Eh = CLh/Q(3) where: • CLint = intrinsic clearance (calculated from microsomal incubations) • X = 40 for human, 41.5 for rat and 45 for mouse • Y = 21.4 for human, 40 for rat and 50 for mouse • t1/2 = half-life • CLh = hepatic clearance • Q = liver blood flow rate = 1.24 L/h/kg for human, 4.8 L/h/kg for rat, and 5.4 L/h/kg for mouse • Eh = hepatic extraction ratio • CLh = hepatic clearance
(Liver microsomes are a subcellular fraction often used to study metabolism.)

Data set [5] deals with T1, Chinese hamster ovary cell-derived wild type aGal A (CHO aGal A) (Homo sapiens, UniProt P06280).
T1 construct: host or cells: Chinese hamster ovary (CHO) cells
T1 sequence (P06280 32-429): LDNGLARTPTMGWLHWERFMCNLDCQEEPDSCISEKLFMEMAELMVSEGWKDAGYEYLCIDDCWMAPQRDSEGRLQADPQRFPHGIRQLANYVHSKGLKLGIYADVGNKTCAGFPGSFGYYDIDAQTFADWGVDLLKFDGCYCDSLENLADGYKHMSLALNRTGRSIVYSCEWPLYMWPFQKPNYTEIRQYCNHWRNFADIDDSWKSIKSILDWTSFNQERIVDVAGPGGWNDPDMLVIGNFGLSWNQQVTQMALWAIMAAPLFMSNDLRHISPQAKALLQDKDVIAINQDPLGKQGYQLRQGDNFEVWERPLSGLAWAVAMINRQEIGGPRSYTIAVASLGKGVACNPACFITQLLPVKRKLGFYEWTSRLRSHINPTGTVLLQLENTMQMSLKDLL
As to the kind of experiment: In vitro affinity assay: residual activity of CHO aGal A enzyme, hydrolysis of 4-methylumbelliferyl-α-D-galactopyranoside. Conditions: 1 nM enzyme, 30 min preincubation at room temperature, pH 4.6, 5 mM 4-MUGA substrate. It counts as biochemical. The method, then:
Using an in vitro affinity assay, measurement of residual activity by preincubating the enzyme with varying concentrations of the probe confirmed that the [^19F]
Figure 5 Residual activity of CHO aGal A enzyme measured via hydrolysis of substrate 4−methylumbelliferyl−α−D−galactopyranoside after 30 min of preincubation with AGAL probe.
The IC50 assessment for the aGal inhibitors was performed using the fluorescent substrate in a McIlvaine buffer at pH 4.6. The CHO aGal A enzyme at 1 nM was pre-incubated with different concentrations of the inhibitor or DMSO as control for 30 min at room temperature. The fluorescent substrate 4-methylumbelliferyl-α-D-galactopyranoside (Research Products International company, catalog number M65400, Mount Prospect, IL, USA) was then added to a final concentration of 5 mM. The reaction was quenched with 0.5 M sodium bicarbonate buffer, with pH 10.5, and plates were read using a SpectraMax reader at excitation and emission wavelengths of 360 and 460 nm, respectively. Data were corrected for background fluorescence and IC50 calculation was performed using an inhibitory dose–response curve fitting in GraphPad Prizm 8.0.

Turning to `O=C(CCCCCCCn1cc(CCCF)nn1)N1[C@@H]2[C@H](O)[C@@H](O)[C@@H](O)[C@@H](CO)[C@@H]21` [AGAL], the IC50 in data set [1] (range of human and rodent recombinant receptors and binding sites, read-out: IC50 values for off-target receptors and binding sites) was > 10 µM. The “inhibition of specific binding or activity” value in data set [1] (selectivity panel, >160 proteins) is reported as ≥ 50%. For the same compound, the pH-dependent lipophilicity (logD) at 1 h in data set [2] was -0.43. Also, the parent remaining in data set [3] (30 min post-incubation) worked out at 93%. The half-life at 1 µM in data set [3] (pooled plasma, 37 °C, read-out: Plasma Half-Life, t1/2) worked out at 3.47 h. Besides, in data set [4], the CLh amounted to 68.8 mL/min/kg; the “Eh (hepatic extraction ratio)” value is on record as 0.766; the “microsomal stability, clearance in words” value is “highly cleared”. In data set [4] (1 μM, NADPH + UDPGA), the intrinsic clearance (CLint scaled) at 1 µM was 293 mL/min/kg. The same compound had a half-maximal inhibitory concentration (IC50) in data set [5] of 0.03 µM.

By IC50 is commonly meant the midpoint of a concentration-inhibition curve. The logD is the decadic logarithm of the distribution of all forms, ionised or not, between an organic phase and buffer at a given pH. Low values mean a more hydrophilic compound, high ones a more lipophilic compound. The CLint scaled is the capacity of the preparation to metabolise the compound, expressed as a volume cleared per time.
